Measurements from patent US20260166159A1, “KRAS G12D DEGRADATION AGENT, AND PREPARATION METHOD AND USE THEREFOR” (LEADINGTAC PHARMACEUTICAL (SHAOXING) CO., LTD., priority 2022, published 2026).

Key:
KRAS-G12D [1] = target: T1, KRAS-G12D (Homo sapiens, UniProt P01116, G12D); test: KRAS-G12D degradation assay (Western Blot), A-427 cells; type: cell-based; conditions: A427 cells, 24 h, numeric values; for Dmax: A-427
T1 construct: endogenous in cells; host or cells: A-427 (ATCC), AGS, AsPc-1, Panc 04.03
Summary of the method: (§1)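 Each KRAS G12D mutant line (A-427, AGS, AsPc-1, Panc 04.03) was seeded at 5×10^5 cells/well and treated 24 h at 37 °C with 0.03–3000 nM compound (final DMSO 0.25%). KRAS in lysates was measured by Western blot, normalized to β-actin and compared with controls, giving DC50 and Dmax from curve fits.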

KRAS-G12D [2] = target: T1, KRAS-G12D; test: KRAS-G12D degradation assay (Western Blot), AGS cells; type: cell-based; conditions: 24 h
Experimental: (§2) The degradation effects of the compounds on KRAS-G12D were investigated on KRAS G12D mutant human lung cancer cell A-427 (ATCC), KRAS G12D mutant human gastric cancer cell AGS, KRAS G12D mutant human metastatic pancreatic cancer cell AsPc-1, and KRAS G12D mutant human pancreatic adenocarcinoma cell Panc 04.03. The specific procedures were as follows: 0.95 mL of cells were seeded into each well of a 24-well cell culture plate to achieve a cell density of 5×10^5 cells/well; and the cell plate was incubated in an incubator at 37° C. with 5% CO2 overnight. Then 50 μL of the compound solution after dilution was added to each of the wells with the corresponding cells, so that the final concentration of the compound was in a range of 0.03-3000 nM. The final concentration of DMSO was 0.25%. After the compounds were added, the cell plate was incubated in the incubator at 37° C. with 5% CO2 for 24 h. The culture medium in the 24-well cell culture plate was removed, and the plate was washed twice with 1×PBS (KeyGEN). 120 μL of RIPA (strong) lysis buffer (Beyotime) supplemented with 1 mM phenylmethylsulfonyl fluoride, a protease inhibitor mixture (Beyotime), and a protease phosphatase inhibitor mixture (Beyotime) was added to lyse adherent A-427 cells at the bottom of the cell culture plate. After the plate was left to stand on ice for 30 min, the protein lysate in each well was transferred to a 1.5 mL centrifuge tube and centrifuged at 15000 g for 20 min at 4° C. The cell lysate supernatants after centrifugation were cryopreserved in a refrigerator at −80° C. for later use.
(§3) After the samples of the cell lysate supernatants that had been prepared were thawed from the refrigerator at −80° C., the total protein concentrations of the cell lysates were determined using a BCA protein quantification kit (Tiangen). The total protein concentrations of the samples were then adjusted to 0.5 μg/μL with PBS and 5×SDS-PAGE protein loading buffer (Beyotime), and the samples were incubated in a water bath at 100° C. for 15 min. The samples were then incubated in an ice bath for 5 min and centrifuged at 14000 g for 1 min at 4° C., and the supernatants were mixed well as loading samples for the Western Blot assay. The samples were loaded into wells of a 10% precast gel (KeyGEN) with a loading volume of 10 μL (total protein: 5 μg), a sufficient Tris-MOPS-SDS running buffer (Adamas) was added, and then electrophoresis was performed at a constant voltage of 120 V for 55 min. After the electrophoresis, the proteins on the gel were transferred to PVDF membranes at a constant current of 250 mA for 55 min. After the membrane transfer, the PVDF membranes were incubated in 1× Quick Block blocking buffer (Beyotime) at room temperature for 30 min. After the blocking, the PVDF membranes were separately incubated at 4° C. overnight with the KRAS antibody (Abcam) diluted in a ratio of 1:1000 and the […] antibody (Abcam) diluted in a ratio of 1:2000 in 5% BSA as the diluent, and then washed with 1×TBST buffer (2.4 g of Tris, 8.8 g of NaCl, 1.5 mL of Tween 20, with pH adjusted to 7.4, with the volume brought to 1 L) 3 times for 10 min/time. The membranes were incubated with a secondary antibody (Abcam) diluted in 5% BSA at room temperature for 2 h, and then washed with 1×TBST buffer 3 times for 10 min/time. Finally, the membranes were incubated with Clarity Western ECL Substrate (BIO-RAD) for 5 min for luminescence and color development, and a ChemiScope 6200 Touch chemiluminescence imaging system (Clinx) was used for color development and protein mapping. Gray value analysis of the protein maps was performed using the chemiluminescence analysis software (Clinx). The gray correction value for each sample was calculated using the formula: gray correction value=(gray value of target protein/gray value of corresponding internal reference)×10^3. Then degradation rates were calculated by comparison with the gray correction value of the control group. […]

KRAS-G12D [3] = target: T1, KRAS-G12D; test: KRAS-G12D degradation assay (Western Blot), AsPc-1 cells; type: cell-based; conditions: for DC50: 24 h; for Dmax: ASPC1, 24 h
Summary of the method: as §1

KRAS-G12D [4] = target: T1, KRAS-G12D; test: KRAS-G12D degradation assay (Western Blot), Panc 04.03 cells; type: cell-based; conditions: 24 h
Experimental: as §2, §3

[5] = system: KRAS G12D mutant human lung cancer cell A427; test: 3D cell proliferation inhibition assay, A427; type: cell-based; conditions: A-427, 168 h, A427, 7 days, CTG, numeric values
Summary of the method: (§4)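 CellTiter-Glo luminescence, read after 60 min at room temperature, measured growth of 3D cultures (5×10^2 cells/well) exposed for 7 days to compounds at final concentrations of 10000–0.026 nM in 0.2% DMSO. Percent inhibition, scaled between DMSO-treated cells and medium alone, was fitted against log concentration for IC50.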

[6] = system: KRAS G12D mutant human gastric cancer cell AGS; test: 3D cell proliferation inhibition assay, AGS; type: cell-based; conditions: 168 h, 7 days, CTG, numeric values
Summary of the method: as §4

[7] = system: KRAS G12D mutant human metastatic pancreatic cancer cell AsPc-1; test: 3D cell proliferation inhibition assay, AsPc-1; type: cell-based; conditions: ASPC1, 168 h, AsPc-1, 7 days, CTG, numeric values
Summary of the method: as §4

[8] = system: KRAS G12D mutant human pancreatic cancer cell Panc 04.03; test: 3D cell proliferation inhibition assay, Panc 04.03; type: cell-based; conditions: 168 h, Panc 04.03, 7 days, CTG, numeric values
Summary of the method: as §4

[9] = system: KRAS G12D mutant human pancreatic cancer cell HPAC; test: 3D cell proliferation inhibition assay, HPAC; type: cell-based; conditions: 168 h, 7 days, CTG
Summary of the method: as §4

KRAS-G12D mutant cells = KRAS-G12D mutant cells versus wild-type tumor cells; cited from earlier work
[10] = system: xenograft tumor models of both pancreatic cancer and colorectal cancer; conditions: cited from earlier work

T1 sequence (P01116 1-188 isoform P01116-2 G12D): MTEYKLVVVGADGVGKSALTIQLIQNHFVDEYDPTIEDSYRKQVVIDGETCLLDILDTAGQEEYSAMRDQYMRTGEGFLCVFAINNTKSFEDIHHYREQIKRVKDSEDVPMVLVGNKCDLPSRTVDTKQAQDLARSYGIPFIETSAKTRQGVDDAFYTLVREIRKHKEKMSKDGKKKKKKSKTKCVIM

| Compound | DC50 (KRAS-G12D [1]) | Dmax (KRAS-G12D [1]) | DC50 (KRAS-G12D [2]) | Dmax (KRAS-G12D [2]) | DC50 (KRAS-G12D [3]) | Dmax (KRAS-G12D [3]) | DC50 (KRAS-G12D [4]) | Dmax (KRAS-G12D [4]) | IC50 [5] | IC50 [6] | IC50 [7] | IC50 [8] | IC50 [9] | specificity (KRAS-G12D mutant cells) | inhibition in xenograft tumor models [10] |
| --- | --- | --- | --- | --- | --- | --- | --- | --- | --- | --- | --- | --- | --- | --- | --- |
| C#Cc1c(F)ccc2cc(O)cc(-c3ccc4c(N5CC6CCC(C5)N6)nc(OCC5(CN6CCN(CC7CCC8(CC7)CCN(C(=O)c7ccc(OC)c(N9CCC(=O)NC9=O)c7)CC8)CC6)CC5)nc4c3F)c12 [Example 71, 1-(5-(9-((4-((1-(((4-(3,8-diazabicyclo[3.2.1]octan-3-yl)-7-(8-ethynyl-7-fluoro-3-hydroxynaphthalen-1-yl)-8-fluoroquinazolin-2-yl)oxy)methyl)cyclopropyl)methyl)piperazin-1-yl)methyl)-3-azaspiro[5.5]undecane-3-carbonyl)-2-methoxyphenyl)dihydropyrimidine-2,4(1H,3H)-dione] | 2.1 nM | 95% | 7.02 nM | 99.6% | 4.76 nM | 98.6% | 11.9 nM | 98.8% | 46.8 nM | 4.17 nM | 5.28 nM | 16.7 nM | 9.31 nM |  |  |
| CCc1c(F)ccc2cc(O)cc(-c3ccc4c(N5CC6CCC(C5)N6)nc(OCC5(CN6CCN(CC7CCC8(CC7)CCN(C(=O)c7ccc(OC)c(N9CCC(=O)NC9=O)c7)CC8)CC6)CC5)nc4c3F)c12 [Example 73, 1-(5-(9-((4-((1-(((4-(3,8-diazabicyclo[3.2.1]octan-3-yl)-7-(8-ethyl-7-fluoro-3-hydroxynaphthalen-1-yl)-8-fluoroquinazolin-2-yl)oxy)methyl)cyclopropyl)methyl)piperazin-1-yl)methyl)-3-azaspiro[5.5]undecane-3-carbonyl)-2-methoxyphenyl)dihydropyrimidine-2,4(1H,3H)-dione] | 19.8 nM | 87.2% | 16 nM | 85.7% | 35.7 nM | 100% | 27.1 nM | 95.6% | 3.54 nM | 21.1 nM | 14.9 nM | 64.8 nM | 14.7 nM |  |  |
| CCc1c(F)ccc2cc(O)cc(-c3ccc4c(N5CC6CCC(C5)N6)nc(OCC5(CN6CCN(CC7CCC8(CC7)CCN(C(=O)c7ccc(C)c(N9CCC(=O)NC9=O)c7)CC8)CC6)CC5)nc4c3F)c12 [Example 75, 1-(5-(9-((4-((1-(((4-(3,8-diazabicyclo[3.2.1]octan-3-yl)-7-(8-ethyl-7-fluoro-3-hydroxynaphthalen-1-yl)-8-fluoroquinazolin-2-yl)oxy)methyl)cyclopropyl)methyl)piperazin-1-yl)methyl)-3-azaspiro[5.5]undecane-3-carbonyl)-2-methylphenyl)dihydropyrimidine-2,4(1H,3H)-dione] | 4.13 nM | 83.8% | 57.8 nM | 89.2% | 8.79 nM | 99.5% | 9.38 nM | 92% | 88.1 nM | 9.1 nM | 14.8 nM | 83.9 nM | 11.3 nM |  |  |
| C#Cc1cccc2cc(O)cc(-c3ccc4c(N5CC6CCC(C5)N6)nc(OCC5(CN6CCN(CC7CCC8(CC7)CCN(C(=O)c7ccc(C)c(N9CCC(=O)NC9=O)c7)CC8)CC6)CC5)nc4c3F)c12 [Example 77, 1-(5-(9-((4-((1-(((4-(3,8-diazabicyclo[3.2.1]octan-3-yl)-7-(8-ethynyl-3-hydroxynaphthalen-1-yl)-8-fluoroquinazolin-2-yl)oxy)methyl)cyclopropyl)methyl)piperazin-1-yl)methyl)-3-azaspiro[5.5]undecane-3-carbonyl)-2-methylphenyl)dihydropyrimidine-2,4(1H,3H)-dione] | 1.76 nM | 94.5% | 1.47 nM | 100% | 13.2 nM | 98.2% | 26.2 nM | 98.5% | 17.8 nM | 8.9 nM | 6.75 nM | 31.5 nM | 9.54 nM |  |  |
| C#Cc1cccc2cc(O)cc(-c3ccc4c(N5CC6CCC(C5)N6)nc(OCC5(CN6CCN(CC7CCC8(CC7)CCN(C(=O)c7ccc(Cl)c(N9CCC(=O)NC9=O)c7)CC8)CC6)CC5)nc4c3F)c12 [Example 78, 1-(5-(9-((4-((1-(((4-(3,8-diazabicyclo[3.2.1]octan-3-yl)-7-(8-ethynyl-3-hydroxynaphthalen-1-yl)-8-fluoroquinazolin-2-yl)oxy)methyl)cyclopropyl)methyl)piperazin-1-yl)methyl)-3-azaspiro[5.5]undecane-3-carbonyl)-2-chlorophenyl)dihydropyrimidine-2,4(1H,3H)-dione] | 10.1 nM | 70.2% | 28.9 nM | 92.6% | 23.7 nM | 100% | 16.3 nM | 100% | 16.3 nM | 9.25 nM | 17 nM | 37.9 nM | 18.7 nM |  |  |
| C#Cc1cccc2cc(O)cc(-c3ncc4c(N5CC6CCC(C5)N6)nc(OCC5(CN6CCN(CC7CCC8(CC7)CCN(C(=O)c7ccc(OC)c(N9CCC(=O)NC9=O)c7)CC8)CC6)CC5)nc4c3F)c12 [Example 82, 1-(5-(9-((4-((1-(((4-(3,8-diazabicyclo[3.2.1]octan-3-yl)-7-(8-ethynyl-3-hydroxynaphthalen-1-yl)-8-fluoropyrido[4,3-d]pyrimidin-2-yl)oxy)methyl)cyclopropyl)methyl)piperazin-1-yl)methyl)-3-azaspiro[5.5]undecane-3-carbonyl)-2-methoxyphenyl)dihydropyrimidine-2,4(1H,3H)-dione] | 1.21 nM | 99% | 3.84 nM | 97.7% | 12.6 nM | 93.7% | 6.74 nM | 100% | 21.8 nM | 5.78 nM | 4.95 nM | 14.1 nM | 4.15 nM |  |  |
| C#Cc1c(F)ccc2cc(O)cc(-c3ncc4c(N5CC6CCC(C5)N6)nc(OC[C@@]56CCCN5C[C@H](F)C6)nc4c3F)c12 [MRTX1133] |  |  |  |  |  |  |  |  |  |  |  |  |  | more than 1000 times | Dose-dependent inhibition |
